A word on the pIC50: it is the negative decadic logarithm of the IC50, by convention in mol/L. Read a high pIC50 as a small IC50.

We go through five compounds from patent US11389433B2, “BRD4 inhibitor treatment of IgE-mediated diseases” (THE BOARD OF REGENTS OF THE UNIVERSITY OF TEXAS SYSTEM, priority 2018, dated 2022).

The conditions of series [1]: cited from earlier work.
A further series has as its system IL-6. Description: Inhibition of IL-6 induction in hSAECs. To be noted: Homo sapiens. Type of series: cell-based.
A further series concerns CIG5. Put plainly: Inhibition of CIG5 induction in hSAECs. Type of series: cell-based. The settings on record: Homo sapiens.
Series [2] has as its system rCDE-challenged C57BL/6 mice. Description: Repetitive cat dander extract (rCDE) challenge, airway remodeling model. In kind it is in vivo, mouse. To be noted: 10 mg/kg ip; for modified Ashcroft score: rCDE alone 8.8±2 (IKKi study), 9±2 (ZL0454 study). As to the method: 12 week old male wild-type (WT) C57BL/6 mice were purchased from Jackson Laboratory (Bar Harbor, Me.). CDE (Stallergenes/Greer laboratories, 20 μg/dose) was administered to naïve C57BL6/J mice every other day via the intranasal route for a total of 15 administrations (n=5 mice/group). In the IKK inhibitor experiments, mice were either pretreated with vehicle or the selective IKK inhibitor [BMS345541, 10 mg/kg via the intraperitoneal (ip) route]. […] Mice were sacrificed 12 d later to allow resolution of the acute inflammation.
Formalin-fixed lungs were embedded in paraffin, sectioned at a 4 μm thickness, and stained with hematoxylin and eosin or Masson's trichrome. Microscopy was performed on a NIKON Eclipse Ti System 16, 17. Pulmonary fibrosis was graded using a modified Ashcroft scoring method 16, 17. In brief, to determine the fibrosis histopathology score for the lung of each mouse, the entire left and right longitudinal lung sections were scored separately (score range, 0 to 9) at ×100 magnification, and the scores were combined (total score range, 0 to 18)^16, 17.
Bronchoalveolar lavage and tissue processing. Animals were anesthetized, bronchoalveolar lavage fluid (BALF) was obtained and the mice sacrificed. Lung tissues were taken for total RNA extraction or fixed for histological examination. For histological examination, lungs were inflated under 25 cm H2O pressure with 10% (v/v) neutral buffered formalin through the tracheal cannula and immersed in 10% buffered formalin for at least 24 h. After being processed into paraffin blocks, the lungs were cut into 5-μm sections and stained with Masson Trichrome to assess fibrotic changes. Microscopy was performed on a NIKON Eclipse Ti System^75.
Quantification of accumulated mucin was assessed by 2 investigators who were blind to the treatment groups on a subjective scale of 0, 1, 2, 3, and 4 corresponding to none, mild, moderate, marked, or severe mucin deposition, respectively. Data were expressed as means of scores recorded by 2 blinded investigators^76,77.
(§1) Cellular recruitment into the airway lumen was assessed in the collected bronchoalveolar lavage fluid (BALF) of mice. Lungs were perfused twice with 1 mL of sterile PBS (pH 7.4) and total cell counts determined by trypan blue staining and counting using a hemocytometer. Differential cell counts were performed on cytocentrifuge preparations (Cytospin 3; Thermo Shandon, Pittsburgh, Pa.) stained with Wright-Giemsa. A total of 300 cells were counted per sample using light microscopy.
(§2) For gene expression analyses, 0.1 μg of cDNA product from reverse transcription of total RNA was amplified using SYBR Green Supermix (Bio-Rad) and gene-specific primers as previously described^75, 78. Quantification of relative changes in gene expression was calculated using the ΔΔCt method^79,80 and expression as the fold change between experimental and control samples was normalized to internal control peptidylprolyl isomerase A (PPI1A)/cyclophilin A.
Confocal Immunofluorescence assays of lung sections were performed on formalin-fixed, paraffin-embedded sections after rehydration using serial concentrations of ethanol. Antigen retrieval was performed in Tris-EDTA buffer (pH 9.0). Lung sections were blocked using 0.1% Triton-X, 5% normal goat serum in phosphate buffered saline (PBS) and incubated with primary antibodies of rabbit anti-p276RelA, pIKKα/β, SNAIL H3K122ac, COL1A, VIM, FN1, and αSMA (Abcam, 1:100 dilution) overnight at 4° C. Normal anti-rabbit IgG were used as staining specificity controls. After washing, lung sections were stained with Alexa Fluor 488- or 568-conjugated goat anti-rabbit IgG (Life Technologies) in incubation buffer for 1 h. Nuclei were stained with 4′, 6-diamidino-2-phenylindole (DAPI) (5 μg/ml in PBS, 20 min) and mounted slides visualized with a LSM510 fluorescence confocal microscope, magnification 63×.
Total IgE in serum were measured using Sandwich ELISA. […]

Series [3] concerns acute CDE-challenged mice. Description: Acute intranasal CDE challenge, BALF cell counts. In kind it is in vivo, mouse. The settings on record: 10 mg/kg; within 24 h of treatment.
Excerpt: FIG. 12. BRD4 pathway mediates CDE-induced EMT of airway epithelial cells. […] A, Q-RT-PCR for CDH1 mRNA expression. #, p<0.01, compared to without CDE, n=3. B, Q-RT-PCR for SNAI1 mRNA expression. *, p<0.01, compared to CDE alone, n=3. C, Q-RT-PCR for COL1A, FN1, and VIM mRNA expression. D, Q-RT-PCR for IL6 mRNA expression. E, Confocal immunofluorescence microscopy for phalloidin (green color), H3K122-Ac (red color), SNAI1 (green color), and VIM (red color) counterstained with DAPI (blue color) in WT hSAECs in absence or presence of CDE (20 μg/mL, 15d) stimulation. Images were acquired at 63×. At right are quantifications of relative fluorescence intensities of phalloidin, H3K122ac, SNAIL and VIM, * p<0.01, n=5. […] Shown are total, macrophage, and neutrophil counts in BALF 24 h later after CDE challenge. G. Total serum IgE was quantitated for each chronic treatment group **, p<0.01, n=5.
as §1

In another series the target is BRD4 (Homo sapiens, UniProt O60885). To be noted: in cellulo; cited from earlier work.
The next series has as its system hSAECs. Description: CDE-induced mesenchymal transition of hSAECs. In kind it is cell-based, human. To be noted: CDE 20 μg/mL 15 d; 10 μM. As to the method: Immortalized human small airway epithelial cells (hSAECs) were previously described^25. hSAECs were grown in SAGM small airway epithelial cell growth medium (Lonza, Walkersville, Md.) in a humidified atmosphere of 5% CO2. BMS345541 was purchased from Sigma Aldrich. CDE was purchased from Greer Laboratories.
as §2
hSAECs were incubated ±CDE (20 μg/mL) for 15 d, re-plated on glass cover slips pretreated with rat tail collagen (Roche Applied Sciences), and fixed with 4% paraformaldehyde in PBS. Afterwards, the fixed cells were stained with Alexa Fluor® 488- or 568-phalloidin (Life Technologies) for cytoplasmic distribution of F-actin (green or red color) and also counterstained with 4′,6-diamidino-2-phenylindole (DAPI) for nuclear staining (blue color). The cells were visualized with a Nikon fluorescence confocal microscope at a magnification of 63×^75, 78.
For immunofluorescence staining, hSAECs were plated on rat tail collagen-treated cover glasses and stimulated with CDE for the indicated times. The cells were fixed with 4% paraformaldehyde in PBS and incubated with 0.1 m ammonium chloride for 10 min. […] After washing, cells were stained with Alexa Fluor 488- or 568-conjugated goat anti-rabbit IgG (Life Technologies) respectively in incubation buffer for 1 h, then visualized with a LSM510 fluorescence confocal microscope, magnification 63×.

The conditions of series [4]: 3 months of administration; cited from earlier work.

pIC50: −log10 of the molar value.

`CCC(=O)O[C@]1(C(=O)SCF)[C@H](C)C[C@H]2[C@@H]3C[C@H](F)C4=CC(=O)C=C[C@]4(C)[C@@]3(F)[C@@H](O)C[C@@]21C` [Fluticasone propionate]: in series [1], the “solubility in dimethyl sulfoxide and dimethylformamide” value is on record as “freely soluble”; the “solubility in methanol and 95% ethanol” value is given as “slightly soluble”. Besides, the solubility in water result in series [1] (water) is given as “practically insoluble”.
`COc1cc(OC)c2c(=O)cc(-c3cc(C)c(OCCO)c(C)c3)oc2c1` [ZL0468]: the pIC50 in the series with IL-6 is 5.55; in the series with CIG5, 5.59.
`Cc1cc(/N=N/c2ccc(S(=O)(=O)NC3CCCC3)cc2)c(N)cc1O` [ZL0454, (E)-4-((2-Amino-4-hydroxy-5-methylphenyl)diazenyl)-N-cyclopentylbenzenesulfonamide]: in series [2] (rCDE), the “CDE-specific circulating IgE (allergic sensitization)” value is listed as “completely blunted allergic responses”; the “PAS staining (mucin, mucous metaplasia)” value was “reduced”; the “RelA-BRD4 binding in lung sections (proximity ligation assay)” value is “disrupted”; the “fibrosis / collagen formation and hypercellularity (Masson trichrome)” value was “reduced collagen formation and hypercellularity”. Moreover, in series [2] (rCDE), the “mesenchymal and ECM gene mRNA expression in total lung RNA (Q-RT-PCR)” value is on record as “BRD4-dependent”; the “mucosal H3K122 Ac staining (BRD4 HAT activity)” value is recorded as “inhibited”; the “mucosal mesenchymal and ECM proteins (SNAI1, VIM, COL1A, FN1), immunofluorescence” value was “inhibited”; the “subepithelial αSMA+/COL1+ myofibroblast population” value was “blocked”. Besides, in series [2] (rCDE), the “modified Ashcroft score” value is reported as 1.5±0.5. For the same compound, the “hydroxyproline content in the lung” value in series [2] (rCDE, rCDE alone 0.65±1) was determined as 0.35 ± 0.4 µg/mg. In addition, in series [2] (rCDE, rCDE alone 130±20), the “hydroxyproline content in BALF” value amounted to 70 ± 10 ng/mL. For the same compound, the “acute CDE-induced BALF neutrophilia” value in series [3] was “blocked”. The “BRD4 binding to Pol II and histones” value on BRD4 is “disrupts”. Besides, in the series on hSAECs, the “CDE-induced inhibition of CDH1 mRNA” value is given as “blocked”; the “CDE-induced upregulation of SNAI1, FN1, VIM, COL1A and IL6 mRNAs” value is on record as “significantly blocked”; the “formation of actin stress fibers, H3K122 Ac, SNAI1 and VIM expression (confocal immunofluorescence)” value is on record as “prevented”. In series [4], the “tolerability / apparent toxicity” value is given as “well tolerated over 3 months of administration without apparent toxicity”.
As for `Cc1ccc2nc(NCCN)c3ncc(C)n3c2c1` [IKKi, reference compound], the “total leukocytes in the BALF” value in series [2] (rCDE 15 intranasal challenges, rCDE alone 1,700×10^3) is 450×10^3 cells/ml. In addition, in series [2] (rCDE), the “CDE-specific circulating IgE (allergic sensitization)” value is on record as “completely blocked”; the “PAS staining (mucin, mucous metaplasia)” value is “blocked”; the “fibrosis / collagen formation and hypercellularity (Masson trichrome)” value is “reduced the fibrosis and hypercellularity, although not completely in the alveoli”; the “mesenchymal and ECM gene mRNA expression in total lung RNA (Q-RT-PCR)” value is recorded as “inhibited”. Besides, in series [2] (rCDE), the “mucosal mesenchymal and ECM proteins (SNAI1, VIM, COL1A, FN1), immunofluorescence” value is on record as “completely blocked”; the “subepithelial αSMA+/COL1+ myofibroblast population” value was “blocked”; the “modified Ashcroft score” value is on record as 2±1. Also, in series [2] (rCDE, rCDE alone 2-fold increase), the “hydroxyproline concentration in BALF and lung tissue” value is reported as “normalized”. For the same compound, the “phospho-IKKα/β abundance in the airway epithelial layer” value in series [2] (rCDE, rCDE alone 9-fold increase) is given as “reduced to control values”. For the same compound, the “mucosal phospho-Ser 276 RelA formation” value in series [2] (rCDE, rCDE alone 14-fold increase) is given as “blocked”.
For `Cc1cc(/N=N/c2ccc3c(c2)CCC(=O)N3)c(N)cc1O` [ZL0420], the pIC50 in the series on CIG5 is 6.38.
